Legend:
[1] = Compressibility test on tablets; assay type: physicochemical
Description: A set of tablets was prepared using different compression forces. A compressibility test was carried out on these.

[2] = Stability test (exposure to humidity, XRPD); assay type: physicochemical; settings: 25° C.
Description: Stability tests were carried out on Aliskiren hemifumarate, amorphous solid of this invention and Aliskiren hemifumarate, amorphous solid obtained as described in WO2008/061622, maintaining the samples at 25° C., 75% RH. […] The same samples were exposed to 25° C., 60% RH.

Row | Rupture Strength ([1]; tablet #1, compression strength 22.27 kN) [N] | Rupture Strength ([1]; tablet #2, compression strength 23.82 kN) [N] | Rupture Strength ([1]; tablet #3, compression strength 24.15 kN) [N] | Rupture Strength ([1]; tablet #4, compression strength 6.80 kN) [N] | Rupture Strength ([1]; tablet #5, compression strength 7.95 kN) [N] | Rupture Strength ([1]; tablet #6, compression strength 10.10 kN) [N] | Rupture Strength ([1]; tablet #7, compression strength 11.55 kN) [N] | Rupture Strength ([1]; tablet #8, compression strength 7.88 kN) [N] | Rupture Strength ([1]; tablet #9, compression strength 10.15 kN) [N] | Rupture Strength ([1]; tablet #10, compression strength 13.18 kN) [N] | Rupture Strength ([1]; tablet #11, compression strength 15.60 kN) [N] | Rupture Strength ([1]; tablet #12, compression strength 14.12 kN) [N] | Rupture strength compared with tablets of amorphous solid obtained as described in WO2008/061622 ([1]; comparison of Tables 7 and 8) | Rupture Strength ([1]; tablet #1, compression strength 11.83 kN) [N] | Rupture Strength ([1]; tablet #2, compression strength 5.83 kN) [N] | Rupture Strength ([1]; tablet #3, compression strength 16.45 kN) [N] | Rupture Strength ([1]; tablet #4, compression strength 10.85 kN) [N] | Rupture Strength ([1]; tablet #5, compression strength 19.43 kN) [N] | Typical nature of the diffractogram (XRPD pattern) after exposure ([2]; 60% RH, 5 days, curve A basal vs curve B, FIG. 15) | Compound | Change of physical form of the sample ([2]; 75% RH, after 2 hours)
1 | 1.5 | 2 | 1.5 | 2 | 2 | 1.5 | 2.2 | 2.5 | 2 | 2 | 2 | 2 | – | – | – | – | – | – | – | COCCCOc1cc(C[C@@H](C[C@H](N)[C@@H](O)C[C@H](C(=O)NCC(C)(C)C(N)=O)C(C)C)C(C)C)ccc1OC | –
2 | – | – | – | – | – | – | – | – | – | – | – | – | higher | 4.5 | 4 | 2 | 4 | 3.5 | lost | COCCCOc1cc(C[C@@H](C[C@H](N)[C@@H](O)C[C@H](C(=O)NCC(C)(C)C(N)=O)C(C)C)C(C)C)ccc1OC [(2S,4S,5S,7S)-5-amino-N-(3-amino-2,2-dimethyl-3-oxypropyl)-4-hydroxy-7-[[4-methoxy-3-(3-methoxypropoxy)pheny]methyl]-8-methyl-2-propan-2 ilnonanamide] | changed from solid to viscous liquid form
